Test results published in patent US8691865B2 (AbbVie Inc., priority 2008, dated 2014).

What follows are molecules tested against human Cav2.2 (Homo sapiens, UniProt Q00975) (assay: Assessment of calcium channel activity using FLIPR (Ca2+ influx in IMR32 cells)). Settings: not given.
Format: cell-based
In short: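 Human neuroblastoma IMR32 cells were seeded at 1−1.2×10^5 cells/well and cultured 48 h at 37 °C before FLIPR calcium influx measurement. Percent inhibition at each concentration was calculated against the no-inhibitor signal, and IC50 came from sigmoidal dose-response fits.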

Sequence of human Cav2.2 (Q00975 whole entry): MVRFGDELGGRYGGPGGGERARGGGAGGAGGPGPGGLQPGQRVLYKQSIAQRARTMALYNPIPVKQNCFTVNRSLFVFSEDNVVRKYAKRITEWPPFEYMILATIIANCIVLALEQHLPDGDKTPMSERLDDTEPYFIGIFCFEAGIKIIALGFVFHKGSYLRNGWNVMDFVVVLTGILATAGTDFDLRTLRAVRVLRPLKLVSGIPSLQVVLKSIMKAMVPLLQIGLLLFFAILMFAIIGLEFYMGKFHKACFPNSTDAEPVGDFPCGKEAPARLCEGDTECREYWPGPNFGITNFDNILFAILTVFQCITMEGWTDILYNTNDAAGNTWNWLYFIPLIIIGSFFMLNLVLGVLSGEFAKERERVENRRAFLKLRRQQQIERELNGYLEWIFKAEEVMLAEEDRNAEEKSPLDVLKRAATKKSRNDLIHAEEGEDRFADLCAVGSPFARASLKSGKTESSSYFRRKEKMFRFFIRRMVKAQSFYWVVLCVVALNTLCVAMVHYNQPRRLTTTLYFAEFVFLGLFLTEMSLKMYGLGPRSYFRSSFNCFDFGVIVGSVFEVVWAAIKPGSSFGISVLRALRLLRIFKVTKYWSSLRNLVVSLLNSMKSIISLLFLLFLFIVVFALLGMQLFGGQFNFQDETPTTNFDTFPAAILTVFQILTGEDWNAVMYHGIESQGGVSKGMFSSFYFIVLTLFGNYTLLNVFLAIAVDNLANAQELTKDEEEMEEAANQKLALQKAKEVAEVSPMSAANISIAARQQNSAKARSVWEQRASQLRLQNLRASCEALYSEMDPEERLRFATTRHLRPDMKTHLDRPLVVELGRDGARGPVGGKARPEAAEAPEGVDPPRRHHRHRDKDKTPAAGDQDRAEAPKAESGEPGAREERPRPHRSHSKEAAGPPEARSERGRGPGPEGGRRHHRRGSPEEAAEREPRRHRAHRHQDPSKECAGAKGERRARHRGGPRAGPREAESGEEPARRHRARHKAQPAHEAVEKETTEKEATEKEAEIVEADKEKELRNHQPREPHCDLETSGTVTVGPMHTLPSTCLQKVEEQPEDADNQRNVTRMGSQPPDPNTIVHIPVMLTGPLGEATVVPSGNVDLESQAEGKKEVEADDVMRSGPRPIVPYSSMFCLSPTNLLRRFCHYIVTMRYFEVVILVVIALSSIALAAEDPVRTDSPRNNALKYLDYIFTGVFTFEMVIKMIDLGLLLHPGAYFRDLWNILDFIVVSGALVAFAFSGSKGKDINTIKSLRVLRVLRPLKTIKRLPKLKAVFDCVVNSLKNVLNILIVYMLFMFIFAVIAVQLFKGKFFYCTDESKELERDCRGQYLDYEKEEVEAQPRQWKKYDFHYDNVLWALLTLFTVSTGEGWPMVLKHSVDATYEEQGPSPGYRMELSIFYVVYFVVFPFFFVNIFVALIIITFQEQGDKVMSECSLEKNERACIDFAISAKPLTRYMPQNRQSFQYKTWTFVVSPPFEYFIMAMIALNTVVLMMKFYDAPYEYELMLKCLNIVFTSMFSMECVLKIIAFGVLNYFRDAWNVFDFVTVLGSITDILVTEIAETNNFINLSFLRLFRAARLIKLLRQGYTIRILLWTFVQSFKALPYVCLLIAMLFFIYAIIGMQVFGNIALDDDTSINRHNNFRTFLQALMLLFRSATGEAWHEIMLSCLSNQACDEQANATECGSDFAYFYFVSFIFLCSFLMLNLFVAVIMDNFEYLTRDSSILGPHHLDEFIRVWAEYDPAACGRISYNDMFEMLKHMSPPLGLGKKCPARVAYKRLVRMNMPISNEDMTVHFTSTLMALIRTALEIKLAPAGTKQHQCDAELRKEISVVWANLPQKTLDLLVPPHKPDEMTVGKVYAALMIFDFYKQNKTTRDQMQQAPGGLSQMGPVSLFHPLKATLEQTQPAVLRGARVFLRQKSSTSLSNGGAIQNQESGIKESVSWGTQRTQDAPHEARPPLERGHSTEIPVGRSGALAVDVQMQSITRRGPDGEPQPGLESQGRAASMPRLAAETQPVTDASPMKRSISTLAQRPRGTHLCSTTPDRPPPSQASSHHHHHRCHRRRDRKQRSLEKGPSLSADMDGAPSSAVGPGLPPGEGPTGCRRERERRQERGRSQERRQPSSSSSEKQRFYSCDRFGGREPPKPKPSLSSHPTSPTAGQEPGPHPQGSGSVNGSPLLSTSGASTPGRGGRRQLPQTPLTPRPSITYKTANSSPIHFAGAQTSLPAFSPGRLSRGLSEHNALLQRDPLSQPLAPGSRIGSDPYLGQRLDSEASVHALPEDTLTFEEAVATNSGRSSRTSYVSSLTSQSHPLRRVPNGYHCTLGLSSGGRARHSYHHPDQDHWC
Sequence of human Cav2.2 (P54289 25-956 partner limits assumed): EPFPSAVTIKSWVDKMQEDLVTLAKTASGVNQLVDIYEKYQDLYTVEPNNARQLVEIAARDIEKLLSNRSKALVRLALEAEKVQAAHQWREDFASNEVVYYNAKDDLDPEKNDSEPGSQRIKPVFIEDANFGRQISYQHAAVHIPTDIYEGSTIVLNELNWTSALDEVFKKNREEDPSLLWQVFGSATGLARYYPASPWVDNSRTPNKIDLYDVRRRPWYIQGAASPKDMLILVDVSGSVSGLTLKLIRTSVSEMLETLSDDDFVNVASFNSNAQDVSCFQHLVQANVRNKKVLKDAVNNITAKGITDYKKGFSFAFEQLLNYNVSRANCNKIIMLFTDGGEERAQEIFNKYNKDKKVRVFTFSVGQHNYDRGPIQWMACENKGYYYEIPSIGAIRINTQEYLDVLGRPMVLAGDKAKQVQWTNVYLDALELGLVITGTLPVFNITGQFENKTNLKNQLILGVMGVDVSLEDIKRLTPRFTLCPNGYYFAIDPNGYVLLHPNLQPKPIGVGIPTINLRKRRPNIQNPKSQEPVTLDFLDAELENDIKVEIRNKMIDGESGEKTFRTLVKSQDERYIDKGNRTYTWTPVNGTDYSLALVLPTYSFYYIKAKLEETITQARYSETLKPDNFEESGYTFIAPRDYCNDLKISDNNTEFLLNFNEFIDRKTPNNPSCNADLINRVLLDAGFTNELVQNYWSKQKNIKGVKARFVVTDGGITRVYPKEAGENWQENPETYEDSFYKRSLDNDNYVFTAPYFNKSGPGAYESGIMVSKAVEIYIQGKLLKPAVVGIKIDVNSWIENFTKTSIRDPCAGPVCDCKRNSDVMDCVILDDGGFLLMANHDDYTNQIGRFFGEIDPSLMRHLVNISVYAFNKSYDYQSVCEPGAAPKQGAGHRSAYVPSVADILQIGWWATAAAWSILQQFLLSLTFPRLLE
Sequence of human Cav2.2 (P54289 957-1103 partner limits assumed): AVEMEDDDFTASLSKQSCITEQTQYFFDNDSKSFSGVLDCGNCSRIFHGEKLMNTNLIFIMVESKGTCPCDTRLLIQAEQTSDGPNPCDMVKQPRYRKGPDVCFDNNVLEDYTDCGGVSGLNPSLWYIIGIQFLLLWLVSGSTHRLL
Sequence of human Cav2.2 (P54284 whole entry partner): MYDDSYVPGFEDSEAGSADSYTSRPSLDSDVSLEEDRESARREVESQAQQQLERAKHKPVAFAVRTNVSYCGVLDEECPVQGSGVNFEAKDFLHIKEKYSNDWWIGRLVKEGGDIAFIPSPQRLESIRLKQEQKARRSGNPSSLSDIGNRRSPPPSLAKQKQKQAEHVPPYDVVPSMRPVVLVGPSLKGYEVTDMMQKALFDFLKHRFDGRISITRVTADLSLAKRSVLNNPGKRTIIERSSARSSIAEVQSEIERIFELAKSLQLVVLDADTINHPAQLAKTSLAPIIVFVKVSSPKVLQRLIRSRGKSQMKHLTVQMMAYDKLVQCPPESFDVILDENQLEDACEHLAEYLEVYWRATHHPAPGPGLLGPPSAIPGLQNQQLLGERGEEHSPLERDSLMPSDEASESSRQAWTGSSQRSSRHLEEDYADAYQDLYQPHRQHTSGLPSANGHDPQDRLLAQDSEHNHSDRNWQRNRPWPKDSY

SMILES	IC50 [µM]
Cc1ccc(-c2n[nH]cc2CN[C@H]2CC[C@@H]3CN(c4cccc(C(F)(F)F)n4)C[C@@H]32)cc1 [Example 673, (3aR,4S,6aS)-N-{[3-(4-methylphenyl)-1H-pyrazol-4-yl]methyl}-2-[6-(trifluoromethyl)pyridin-2-yl]octahydrocyclopenta[c]pyrrol-4-amine]	0.74
CNCC(=O)N[C@H]1CC[C@@H]2CN(c3ccc(C(F)(F)F)cc3)C[C@@H]21 [Example 752, N^2-methyl-N-{(3aR,4S,6aS)-2-[4-(trifluoromethyl)phenyl]octahydrocyclopenta[c]pyrrol-4-yl}glycinamide]	> 9.5
CCC(CC)C(=O)N[C@H]1CC[C@H]2CN(Cc3cccc(C(F)(F)F)c3)C[C@H]21 (relative stereo) [Example 125, 2-ethyl-N-{(3aS*,4S*,6aR*)-2-[3-(trifluoromethyl)benzyl]octahydrocyclopenta[c]pyrrol-4-yl}butanamide]	2.07
CN[C@@H](CC(C)C)C(=O)N[C@H]1CC[C@@H]2CN(c3cnccc3C(F)(F)F)C[C@@H]21 [Example 765, N^2-methyl-N-{(3aR,4S,6aS)-2-[4-(trifluoromethyl)pyridin-3-yl]octahydrocyclopenta[c]pyrrol-4-yl}-L-leucinamide]	2.59
FC(F)(F)c1cccc(N2C[C@H]3CC[C@H](NCc4ncc[nH]4)[C@H]3C2)n1 [Example 675, (3aR,4S,6aS)-N-(1H-imidazol-2-ylmethyl)-2-[6-(trifluoromethyl)pyridin-2-yl]octahydrocyclopenta[c]pyrrol-4-amine]	2.22
CCCC[C@H](NC)C(=O)N[C@H]1CC[C@@H]2CN(c3ccc(C(F)(F)F)cn3)C[C@@H]21 [Example 601, N^2-methyl-N-{(3aR,4S,6aS)-2-[5-(trifluoromethyl)pyridin-2-yl]octahydrocyclopenta[c]pyrrol-4-yl}-L-norleucinamide]	2.11
CC[C@H](C)[C@H](NC)C(=O)N[C@@H]1CC[C@H]2CN(Cc3ccccc3)C[C@H]21 [Example 354, N^1-[(3aS,4R,6aR)-2-benzyloctahydrocyclopenta[c]pyrrol-4-yl]-N^2-methyl-L-isoleucinamide]	> 30
O=C(N[C@H]1CC[C@@H]2CN(c3ccc(F)c(C(F)(F)F)c3)C[C@@H]21)[C@@H]1C[C@@H](F)CN1 [Example 626, (4R)-4-fluoro-N-{(3aR,4S,6aS)-2-[4-fluoro-3-(trifluoromethyl)phenyl]octahydrocyclopenta[c]pyrrol-4-yl}-L-prolinamide]	4.52
CN[C@@H](CC(C)C)C(=O)N[C@@H]1CC[C@H]2CN(c3ccc(C(F)(F)F)cn3)C[C@H]21 [Example 738, N^2-methyl-N-{(3aS,4R,6aR)-2-[5-(trifluoromethyl)pyridin-2-yl]octahydrocyclopenta[c]pyrrol-4-yl}-L-leucinamide]	2.98
O=C(N[C@H]1CC[C@H]2CNC[C@H]21)C(C1CCCCC1)C1CCCCC1 [Example 53, 2,2-dicyclohexyl-N-[(3aS,4S,6aR)-octahydrocyclopenta[c]pyrrol-4-yl]acetamide]	8.54
CCC[C@@H](C(=O)N[C@H]1CC[C@@H]2CN(S(=O)(=O)c3cccs3)C[C@@H]21)N(C)C(=O)OC(C)(C)C [Example 531, tert-butyl methyl((S)-1-oxo-1-((3aR,4S,6aS)-2-(thiophen-2-ylsulfonyl)octahydrocyclopenta[c]pyrrol-4-ylamino)pentan-2-yl)carbamate]	3.49
CCCC[C@H](NC)C(=O)N[C@H]1CC[C@@H]2CN(c3cccc(C(F)(F)F)n3)C[C@@H]21 [Example 589, N^2-methyl-N-{(3aR,4S,6aS)-2-[6-(trifluoromethyl)pyridin-2-yl]octahydrocyclopenta[c]pyrrol-4-yl}-L-norleucinamide]	0.32
FC(F)(F)c1cccc(N2C[C@H]3CC[C@H](NCc4cccc5nsnc45)[C@H]3C2)n1 [Example 728, (3aR,4S,6aS)-N-(2,1,3-benzothiadiazol-4-ylmethyl)-2-[6-(trifluoromethyl)pyridin-2-yl]octahydrocyclopenta[c]pyrrol-4-amine]	0.48
CC(C)C[C@H](NCC(C)(C)C)C(=O)N[C@H]1CC[C@@H]2CN(S(=O)(=O)c3ccc(F)cc3)C[C@@H]21 [Example 261, N^1-{(3aR,4S,6aS)-2-[(4-fluorophenyl)sulfonyl]octahydrocyclopenta[c]pyrrol-4-yl}-N^2-neopentyl-L-leucinamide]	1.25
CCC[C@H](NC)C(=O)N[C@H]1CC[C@@H]2CN(S(=O)(=O)c3ccc(OC)c(OC)c3)C[C@@H]21 [Example 545, N^1-{(3aR,4S,6aS)-2-[(3,4-dimethoxyphenyl)sulfonyl]octahydrocyclopenta[c]pyrrol-4-yl}-N^2-methyl-L-norvalinamide]	> 30

Same assay, conditions: read-out: IC50 (μM) or percent inhibition (* indicates 3 minute incubation, otherwise 60 minute); IC50; 60 minute pre-incubation with compound; IMR32 cells, 80 mM KCl depolarization

SMILES	IC50 [µM]
C[C@H](C(=O)N[C@@H]1CC[C@H]2CN(Cc3ccccc3)C[C@H]21)c1cccc(C(=O)c2ccccc2)c1 (relative stereo) [Example 13, (2S)-2-(3-benzoylphenyl)-N-[(3aS*,4R*,6aR*)-2-benzyloctahydrocyclopenta[c]pyrrol-4-yl]propanamide]	23.6
CC(C)C(C(=O)N[C@H]1CC[C@@H]2CN(Cc3ccccc3)C[C@@H]21)C(C)C [Example 229, N-[(3aR,4S,6aS)-2-benzyloctahydrocyclopenta[c]pyrrol-4-yl]-2-isopropyl-3-methylbutanamide]	13.4
CC(C)N[C@H]1CC[C@@H]2CN(S(=O)(=O)c3ccc(C(F)(F)F)cc3Cl)C[C@@H]21 [Example 284, (3aR,4S,6aS)-2-{[2-chloro-4-(trifluoromethyl)phenyl]sulfonyl}-N-isopropyloctahydrocyclopenta[c]pyrrol-4-amine]	3.7
CN[C@@H](CC(C)C)C(=O)N[C@@H]1CC[C@H]2CN(Cc3cccc(C(F)(F)F)c3)C[C@H]21 [Example 166, N^2-methyl-N^1-{(3aS,4R,6aR)-2-[3-(trifluoromethyl)benzyl]octahydrocyclopenta[c]pyrrol-4-yl}-L-leucinamide]	2.72
CC(C)C[C@@H](C(=O)N[C@@H]1CC[C@@H]2CN(Cc3ccccc3)C[C@@H]21)N(C)C(=O)OC(C)(C)C [Example 241]	2.08
O=C(N[C@@H]1CC[C@H]2CN(Cc3ccccc3)C[C@H]21)C(c1ccccc1)C1CCCC1 (relative stereo) [Example 8, N-[(3aS*,4R*,6aR*)-2-benzyloctahydrocyclopenta[c]pyrrol-4-yl]-2-cyclopentyl-2-phenylacetamide]	1.07
CCC[C@@H](C(=O)N[C@@H]1CC[C@H]2CN(Cc3ccccc3)C[C@H]21)N(C)C(=O)OC(C)(C)C [Example 233, tert-butyl(S)-1-((3aS,4R,6aR)-2-benzyloctahydrocyclopenta[c]pyrrol-4-ylamino)-1-oxopentan-2-yl(methyl)carbamate]	2.8
O=C(N[C@H]1CC[C@H]2CN(CCCc3ccc(C(F)(F)F)cc3)C[C@H]21)C(C1CCCCC1)C1CCCCC1 [Example 70, 2,2-dicyclohexyl-N-((3aS,4S,6aR)-2-{3-[4-(trifluoromethyl)phenyl]propyl}octahydrocyclopenta[c]pyrrol-4-yl)acetamide]	1.93
CC(C)C[C@H](C(=O)N1C[C@@H]2CC[C@@H](NC(=O)C(C3CCCCC3)C3CCCCC3)[C@@H]2C1)N(C)C [Example 217, 2,2-dicyclohexyl-N-[(3aS,4R,6aR)-2-(N,N-dimethyl-D-leucyl)octahydrocyclopenta[c]pyrrol-4-yl]acetamide]	1.28
